Among the data in patent US10577357B2, “Inhibitors of LDLR-PCSK9 protein-protein interaction and methods of their use” (The Texas A&M University System, priority 2016, dated 2020) are activity values, retold here.

The target in the test is T1, PCSK9 (Homo sapiens, UniProt Q8NBP7).
T1 construct: host or cells: exogenous PCSK9 protein added to HepG2 cells
T1 sequence (Q8NBP7 153-692): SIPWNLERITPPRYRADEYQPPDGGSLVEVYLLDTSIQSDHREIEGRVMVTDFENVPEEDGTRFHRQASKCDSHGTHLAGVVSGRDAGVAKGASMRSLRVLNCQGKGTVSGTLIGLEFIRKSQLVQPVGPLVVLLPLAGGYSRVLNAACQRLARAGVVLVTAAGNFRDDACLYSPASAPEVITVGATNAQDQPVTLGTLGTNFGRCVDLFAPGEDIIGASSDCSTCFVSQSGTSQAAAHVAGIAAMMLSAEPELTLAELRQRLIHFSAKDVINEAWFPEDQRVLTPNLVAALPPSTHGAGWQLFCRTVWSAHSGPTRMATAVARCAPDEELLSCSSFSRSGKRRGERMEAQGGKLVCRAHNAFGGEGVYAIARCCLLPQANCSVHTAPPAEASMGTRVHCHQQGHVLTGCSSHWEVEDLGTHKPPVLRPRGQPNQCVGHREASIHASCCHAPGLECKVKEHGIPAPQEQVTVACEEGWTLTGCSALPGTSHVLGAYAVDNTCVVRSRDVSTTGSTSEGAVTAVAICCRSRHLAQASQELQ
T1 sequence (Q8NBP7 31-152 partner limits assumed): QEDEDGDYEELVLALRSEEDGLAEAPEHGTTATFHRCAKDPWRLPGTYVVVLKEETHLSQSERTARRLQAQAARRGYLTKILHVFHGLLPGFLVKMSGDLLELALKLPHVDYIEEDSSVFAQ
Nature of the test: LDL-uptake assay (BODIPY-LDL) in HepG2 cells with added PCSK9. The format is cell-based. The note with it: inhibitors 50 μM preincubated with 10 μg/mL PCSK9 for 30 min, BODIPY-LDL 10 μg/mL, quintuplicate. The method, then: LDL-uptake assay was performed in quintuplicate following a published procedure with some modifications. HepG2 cells were seeded into 96-well plate at a density of 3×10^4 cells/well in DMEM with 10% FBS medium (Sigma-Aldrich). After a period of 24 h, the medium was aspirated and cells were washed with PBS twice. Cells were treated with 10% lipoprotein-deficient serum (Gemini) in DMEM and incubated for another 24 h. After washing cells with PBS twice, cells were incubated 2 h with either 100 μL of Pep2-8 (30 μM), inhibitors at various concentrations (50 μM), or negative control (DMSO), which were preincubated with 10 μg/mL PCSK9 in 10% lipoprotein-deficient DMEM at 0.5% DMSO level for 30 min prior. A positive control was also performed, in a similar fashion but in the absence of PCSK9. BODIPY-LDL (10 μg/mL, Invitrogen) was added to each well and cells were incubated for another 3 h. Cells were washed three times with PBS, and fluorescent intensity was measured on Synergy H4 plate reader (Biotek) with excitation and emission wavelength at 488 and 520 nm, respectively.
As for `CC(C)C[C@H](C(=O)N1CCN([C@@H](CC(N)=O)C(=O)N[C@@H](CCCNC(=N)N)C(=O)NC2CCOC2=O)CC1)N1C(=O)N[C@@H](CC(=O)O)C1=O` (stereo partly shown) [KB2234], the activity at 50 µM amounted to 8.7 ± 5.9%.

As for `CC(C)C[C@H](C(=O)N1CCN([C@@H](CC(N)=O)C(=O)N[C@@H](CCCNC(=N)N)C(=O)NCCC(=O)O)CC1)N1C(=O)N[C@@H](CC(=O)O)C1=O` [KB2274], the activity at 50 µM came to 13.5 ± 4.3%.

On to `N=C(N)NCCC[C@@H](NC(=O)[C@H](CC(=O)O)N1CCN(C(=O)[C@H](CC(N)=O)N2C(=O)N[C@@H](CCC(N)=O)C2=O)CC1)C(=O)NCCC(=O)O` [KB2275], for which the activity at 50 µM is 8.6 ± 1.5%.

As for `CC(C)C[C@@H](C(=O)N[C@H](CCCNC(=N)N)C(=O)NCCC(=O)O)N1CCN(C(=O)[C@H](CS)N2C(=O)N[C@H](CC(N)=O)C2=O)CC1` [KB2276], the activity at 50 µM turned out to be 19 ± 4.7%.
